Columns and labels:
deoxyribose [1] = assay: TBARS assay, chelants during ultrasound exposure, ferrous iron (Example 1); type: biochemical; conditions: 0.025 mM ferrous iron, 0.03-0.04 mM chelant, 0.01% hydrogen peroxide, pH 7.5, 30 W 2 MHz 10 min
Experimental: (§1) The following example uses the thiobarbituric acid-reactive substances (TBARS) assay to identify chelants that enhance radical production during ultrasound exposure. All solutions were prepared in pH 7.5 phosphate buffer containing approximately 2 mM deoxyribose, 0.01% hydrogen peroxide, 0.025 mM ferrous iron, and 0.03-0.04 mM chelant. Solutions were sonicated at 30 W, 2 MHz, 32-34 degrees Celsius for ten minutes using a PZT-8 1.8 cm diameter custom transducer. The sonicated solution was placed on an orbit shaker rotating at 25 RPM to ensure even sonication of the solution while the transducer was held stationary. Control solutions were placed in a controlled temperature bath at 32-34 degrees Celsius without sonication. After 10 minutes of treatment, 1 mL test solution was placed in a test tube followed by 2 mL of 1% 2-thiobarbituric acid and 2 mL of 2.8% trichloroacetic acid. The test tube was sealed and heated to 90 degrees Celsius for 30 minutes and allowed to cool to room temperature for 20 minutes. The absorbance at 532 nm was measured. The enhanced radical production during ultrasound exposure is determined by comparing the amount of deoxyribose degradation that occurs in the sonicated solution versus the control solution using the following equation: [formula]

deoxyribose [2] = assay: TBARS assay, chelants during ultrasound exposure, ferric iron (Example 2); type: biochemical; conditions: 0.02-0.03 mM ferric iron, 0.04-0.05 mM chelant, 0.01% hydrogen peroxide, pH 7.5, 30 W 2 MHz 10 min
Experimental: as §1, with “0.02-0.03” for “0.025”, “ferric” for “ferrous”, “0.04-0.05” for “0.03-0.04”, “was” for “is”

deoxyribose [3] = assay: TBARS assay, additives in solutions containing iron or iron plus a chelant, ultrasound (Example 5); type: biochemical; conditions: 0.08-0.1 mM ferric iron; EDTA 0.15 mM; 30 W 2 MHz 10 min
Experimental: The following example uses the thiobarbituric acid-reactive substances (TBARS) assay to identify compounds that enhance radical production during ultrasound exposure of solutions containing iron or iron plus a chelant. All solutions were prepared in pH 7.5 phosphate buffer containing approximately 2 mM deoxyribose, 0.01% hydrogen peroxide, 0.08-0.1 mM ferric iron, and the additives indicated in the table below. Solutions were sonicated at 30 W, 2 MHz, 32-34 degrees Celsius for ten minutes using a PZT-8 1.8 cm diameter custom transducer. The sonicated solution was placed on an orbit shaker rotating at 25 RPM to ensure even sonication of the solution while the transducer was held stationary. Control solutions were placed in a controlled temperature bath at 32-34 degrees Celsius without sonication. […] The test tube was sealed and heated to 90 degrees Celsius for 30 minutes and allowed to cool to room temperature for 20 minutes. The absorbance at 532 nm was measured. The enhanced radical production during ultrasound exposure was determined by comparing the amount of deoxyribose degradation that occurs in the sonicated solution versus the control solution using the following equation: [formula]

[4] = on chelation of iron; cited from earlier work

O=C(O)CN(CCN(CC(=O)O)CC(=O)O)CC(=O)O [Ethylenediaminetetraacetic acid]
% Ultrasound Mediated Activity vs Control (deoxyribose [1]): 64% | % Ultrasound Mediated Activity vs Control (deoxyribose [2]): 575% | % Ultrasound Mediated Activity vs Control (deoxyribose [3]): 277% | lowering of the redox potential of Fe(III)/Fe(II) [4]: 0.65 V
